Where two headings read alike, the source gives them in different places.
Legend:
[1] = rat, in vivo; cited from earlier work
[2] = test system: human Tx3868 glioblastoma cells; assay: Radiosensitizing effect: IPA combined with external irradiation in glioblastoma cells; assay type: cell-based; conditions: for radiosensitizer effect: concomitantly administered therapeutic radiation
Method: Five human glioma cell lines, one rat glioma cell line, two human prostate cancer cell lines, as well as one human breast cancer cell line, and a melanoma cell line were investigated. The human glioma cell lines Tx 3868 and T 5135 (from primary human glioblastoma multiforme), and the rat C6 glioma cells were provided by the Institute of Human Genetics, University of the Saarland (Homburg, Germany). The human high-grade glioma cells, designated as A1207, M059K and U373MG, the human prostate cancer cells PC3 and […], the pancreatic carcinoma cell line PanC1, the human breast cancer cell line MCF-07 (American Type Culture Collection, Rockville, Md.), and the pancreatic carcinoma cell line PaCa44 (established by Dr Bulow, Mainz, Germany) as well as the melanoma cell lines SK-MEL25 and A101D were purchased commercially or provided by the oncological research laboratory of the University Medical Center of Saarland (Homburg, Germany). Cells were cultivated in RPMI-1640 medium or in Dulbecco's modified Eagle medium (sodium pyruvate-free, supplemented with […] and pyridoxine), respectively, supplemented with 10% (v/v) heat-inactivated foetal calf serum (FCS), penicillin (50 U/ml), streptomycin (50 μg/ml), and insulin (50 μg/ml; PromoCell, Heidelberg, Germany). All cell lines were maintained in appropriate flasks in a humidified incubator (5% CO2) at 37° C. Before the experiment, subconfluent cell cultures were trypsinized with a solution of 0.05% trypsin containing 0.02% EDTA but without Ca^2+ and Mg^2+, and resuspended in fresh medium to various cell concentrations after counting by vital staining on a hemocytometer, depending upon the study. Cells were free of mycoplasms. Viability of the cells was >95%.
Evaluation of the cell survival rate after treatment with 3/4-iodo-L-phenylalanine. After development of a confluent lawn of cells, the cultures were exposed to 0.1-5 μmol/ml of the corresponding pharmaceutical for up to 48 hours at 37° C./5% CO2. In a parallel experiment, cells were irradiated using a 6-MeV linear accelerator with doses from 2 to 15 Gy or treated with IPA-131 for comparison of cell survival rate. In order to be able to observe the morphology of the glioma cells, the cells were grown on standard glass slides or in standard culture dishes. Then the medium was removed and the cells were fixed either in 70% ethanol for at least 30 min on ice for flow-cytometric analyses after staining or in 4% neutral buffered formalin for immunohistopathological analyse.

[3] = rats, cited from earlier work
[4] = Acute toxicity (LD50/LD10) in rats; conditions: i.p. injection
human tumor cells = assay: Internalisation (uptake) experiments in tumor cells; assay type: cell-based
Method: Uptake experiments were undertaken to evaluate the affinity of the proposed L-phenylalanine derivatives for the proposed human tumors, and to assess their therapeutic activity in vitro. All experiments were performed fourfold, simultaneously with 250000, 500000 and 10^6 freshly prepared human tumor cells, including human malignant glioma cells, pancreatic prostatic and breast cancer cells. Before experiments, subconfluent cells were trypsinized as described above. The suspension was mixed thoroughly, transferred to a 50-ml centrifuge tube (Falcon®, Becton Dickinson, USA). Cells were centrifuged for 5 min at 200×g; the resulting supernatant was removed and the pellet resuspended in serum-free Dulbecco's Mod Eagle medium and then transferred to Eppendorf tubes at concentrations of 10^6 cells/ml for the uptake investigations. Before incubation with the corresponding radiolabeled phenylalanine, the tumor cells were preincubated for 5 min in 500 μL medium at 37° C. in 1.5-ml Eppendorf centrifuge tubes. Aliquots of 30-50 μL (10^6−1.5×10^6 cpm) freshly prepared radiopharmaceutical were added and cells incubated at 37° C./5% CO2 for 1, 2, 5, 15, 30, 60, 90 and 120 min while shaking. Uptake was stopped with 500 μL ice-cold PBS (pH 7.4) and an additional 3-min in an ice bath, the cells were centrifuged for 2 min at 300×g, the supernatant removed and the pellet washed three time with ice-cold PBS. Cell pellets were counted for radioactivity together with 3 aliquots of standards on a Berthold LB951 counter. The percentage of binding of the radiopharmaceutical was calculated by the formula: (cpm cell pellet/mean cpm radioactive standards)×100. The results were expressed either as percent of the applied dose per 10^6 cells or as cpm/1000 cells for better comparison.

malignant cell lines = assay: Cell survival rate after treatment with 3/4-iodo-L-phenylalanine (cytotoxic/cytostatic effect); assay type: cell-based, human
Method: Five human glioma cell lines, one rat glioma cell line, two human prostate cancer cell lines, as well as one human breast cancer cell line, and a melanoma cell line were investigated. The human glioma cell lines Tx 3868 and T 5135 (from primary human glioblastoma multiforme), and the rat C6 glioma cells were provided by the Institute of Human Genetics, University of the Saarland (Homburg, Germany). The human high-grade glioma cells, designated as A1207, M059K and U373MG, the human prostate cancer cells PC3 and […], the pancreatic carcinoma cell line PanC1, the human breast cancer cell line MCF-07 (American Type Culture Collection, Rockville, Md.), and the pancreatic carcinoma cell line PaCa44 (established by Dr Bulow, Mainz, Germany) as well as the melanoma cell lines SK-MEL25 and A101D were purchased commercially or provided by the oncological research laboratory of the University Medical Center of Saarland (Homburg, Germany). […]
Human tumor cells grown on standard glass slides were fixed in 4% neutral buffered formalin and stained with the Giemsa method. The cell number was calculated in 10 consecutive high power fields (×40).

[5] = test system: human A1207 and T3868 glioblastoma xenografts; assay: Intracranial human glioma model in RNU rats (survival); assay type: in vivo; conditions: daily in first week then weekly, n=9
Method: An in vivo experiment was carried out in an intracranial human glioma model in RNU rats to assess the therapeutic effectiveness of 4-Iodo-L-phenylalanine (IPA) in glioma.
Primary human A1207 and T3868 glioblastoma cells (0.5×10^6 cells) were stereotaxically implanted into the right frontal region of RNU rats (2 mm posterior and 2 mm lateral to the intersection of the sagittal and bregma sutures to a depth of 5 mm) while under chloralhydrate anesthesia. The craniectomy was resealed with bone wax and the scalp closed.
IPA (1 and 5 mg/kg b.w.) was administrated i.p. in rats bearing human glioblastoma xenografts (n=9 in each group), starting at day 1 after stereotaxic implantation.
IPA was administrated daily in the first week after implantation and weekly afterwards. Another six RNU rats were treated with saline and served as control.
Then the following parameters were compared: median survival time, tumor size and histology after biopsy.

malignant gliomas = conditions: cited from earlier work

Structure (SMILES): N[C@@H](Cc1ccc(Cl)cc1)C(=O)O (racemic) [p-chloro-phenylalanine]
- effect on growth of developing rats [1]: interferes with the growth of developing rats

Structure (SMILES): N[C@@H](Cc1cccc(I)c1)C(=O)O [3-iodo-L-phenylalanine]
- radiosensitizer effect [2]: significant intrinsic radiosensitizer effect

Structure (SMILES): N[C@@H](Cc1ccc(I)cc1)C(=O)O [IPA, 4-iodo-L-phenylalanine]
- LD50 ([3]; route not stated): > 100 mg/kg
- induction of necrosis/apoptosis ([2]; 0.3 μmol/ml IPA with 10 Gy external radiation, FIG. 7b): increased induction of necrosis and additional induction of apoptosis
- radiosensitizer effect [2]: significant intrinsic radiosensitizer effect
- cell survival rate on combining with external irradiation ([2]; glioma cells, FIGS. 4-6): dramatic reduction of cell survival rate
- LD10 [4]: > 27 mg/kg
- uptake in human tumor cells (human tumor cells; quantified with 4-[123I]iodo-L-phenylalanine, up to 120 min, FIGS. 1-3): high uptake
- concentration up to which transport capacity did not show saturation (human tumor cells; tumor cells): > 200 µmol/L
- cytostatic effect on primary human glioblastoma cells (malignant cell lines; FIG. 4, compared with external irradiation): concentration dependent and more pronounced as compared to external irradiation up to 15 Gy
- rats still alive at day 28 ([5]; IPA 1 mg/kg i.p.): six out of nine
- rats still alive at day 28 ([5]; IPA 5 mg/kg i.p.): seven out of nine

Structure (SMILES): N[C@@H](Cc1ccccc1I)C(=O)O [2-iodo-L-phenylalanine, reference compound]
- uptake in neoplastic cells (human tumor cells; compared with IPA and IMA): low uptake
- cytotoxicity in neoplastic cells (malignant cell lines; compared with IPA and IMA): moderate cytotoxity

Structure (SMILES): N[C@@H](Cc1ccc([123I])cc1)C(=O)O [IPA-123, 4-[^123I]iodo-L-phenylalanine]
- blood-brain barrier passage (malignant gliomas; after intravenous administration): crosses
- enrichment in certain tumors (factor) (malignant gliomas; certain tumors): ≥ 20

Structure (SMILES): N[C@@H](Cc1ccccc1)C(=O)O [L-phenylalanine, reference compound]
- LD50 ([3]; i.p. injection, according to the manufacturer): 5280 mg/kg

Source: US8268888B2, “Therapy of malignant neoplasias” (priority 2005, dated 2012)
